Test results from patent publication US6342261B1, “Method of preserving foods using noble gases” (American Air Liquide, priority 1992, dated 2002).
“And” between values parts separate entries of the source, which are not always exact repeats. Equal values may be shown once. One block for each compound: values may come before it.

Legend:
Anaerobes = experiment: Total microorganisms from product trials: anaerobes; type: cell-based
Protocol: (§1) Many different products were assayed under a wide variety of temperatures and pressures, packaging treatments, and post-packaging handling. In the general experiment, sterile pouches of impermeable film were filled with freshly-obtained food products under recommended handling regimes. Each was then purged thoroughly with the gas mixture to be tested. Then sealed, the pouch was further treated by cooking, cold storage, or other parameter, or else was not. The sealed pouch was stored at room, cold, or freezing temperature, and periodically sampled for microorganism counts (total, aerobic, anaerobic, Pseudomonas, Lactobacilli). It was also studied for observable deterioration and scored. Some samples were subjected to appropriate chemical analysis. Others were sampled for specific enzyme activities as above. All told, the average experiment consisted of replicate samples of product being assayed for microbial counts, microbial identifications, enyzme activities, chemical oxidation, discoloration, odor and/or taste changes, and final carbon dioxide and oxygen concentrations. Microbes and enzymes known to be important in the degradation of each individual product were selected for examination and scoring from the literature.

Tyrosinase EC 1.14.18.1 = experiment: Enzyme activity under gas: tyrosinase; type: biochemical; details: 25°, optimal reaction conditions, simple saturation of solution with gas
Protocol: (§2) Sealed cuvettes containing enzymes representative of and in fact important in food product degradation processes were thoroughly purged and filled with assay gases. Injection of gassed substrate solutions started the reactions, which were generally conducted under optimal conditions. These were monitored […] by scanning uv/vis spectrophotometry. All controls were conducted for oxygen, nitrogen and carbon dioxide. A range of temperatures and pressures were employed. An example protocol is appended. Results were expressed in real-time, and transformed to calculate yield and rate differences for the reaction. Over 50 exemplary enzymes were so assayed. Enzymes selected for examination from various products are assayed in precisely the same manner, but always in terms of relative activity in comparison with that product in air or another control gas or gas mixture.
(§3) The follwing Table summarizes the maximum inhibition of enzymes activity realized with various noble gases under various storage conditions.
at 25° and optimal reaction conditions, simple saturation of solution with gas: […]

Yeasts = experiment: Total microorganisms from product trials: yeasts; type: cell-based
Protocol: as §1

[1] = test system: Aspartate aminotransferase (EC 2.6.1.1); experiment: Enzyme activity under gas: aspartate aminotransferase; type: biochemical
Protocol: as §2, §3

[2] = biological target: Glucose oxidase EC 1.1.3.4 (Aspergillus niger, UniProt P13006); experiment: Enzyme activity under gas: glucose oxidase; type: biochemical
Protocol: as §2, §3

Aerobes = experiment: Total microorganisms from product trials: aerobes; type: cell-based
Protocol: as §1

Molds = experiment: Total microorganisms from product trials: molds; type: cell-based
Protocol: as §1

[3] = test system: Acetyl-CoA synthetase EC 6.2.1.1; experiment: Enzyme activity under gas: acetyl-CoA synthetase; type: biochemical
Protocol: as §2, §3

Lipase EC 3.1.1.3 = experiment: Enzyme activity under gas: lipase; type: biochemical
Protocol: as §2, §3

[4] = test system: Class V. Isomerases (EC 5); experiment: Enzyme activity under gas: Class V isomerases (enzyme not named); type: biochemical
Protocol: as §2, §3

[5] = biological target: Gamma-glutamyl transpeptidase EC 2.3.2.2 (Homo sapiens, UniProt P19440); experiment: Enzyme activity under gas: gamma-glutamyl transpeptidase; type: biochemical
Protocol: as §2, §3

Yeasts and molds = experiment: Yeast and mold growth on bread and pasta under gases; type: cell-based
Protocol: as §1, with “concentrations.” for “concentrations. Microbes and enzymes known to be important in the degradation of each individual product were selected for examination and scoring from the literature.”

[6] = Chemical oxidation reactions of food components under gases; details: even in the presence of oxygen; pigments, phenolics, ascorbic acid of the product section
From the text: Other oxygenated species, such as carbon dioxide are reactively destructive.
That is, in accordance with the present invention, it has been discovered that certain gases can directly affect the oxidation rate of chemicals and not merely slow oxidation only as function of physical and inert displacement of oxygen. Generally, the present invention is effected by contacting the chemicals or chemical preparations during at least a protion of storage thereof to a noble gas, a mixture of noble gases or a gaseous mixture containing at least one noble gas.

Glucose oxidase EC 1.1.3.4, sequence (P13006 17-605): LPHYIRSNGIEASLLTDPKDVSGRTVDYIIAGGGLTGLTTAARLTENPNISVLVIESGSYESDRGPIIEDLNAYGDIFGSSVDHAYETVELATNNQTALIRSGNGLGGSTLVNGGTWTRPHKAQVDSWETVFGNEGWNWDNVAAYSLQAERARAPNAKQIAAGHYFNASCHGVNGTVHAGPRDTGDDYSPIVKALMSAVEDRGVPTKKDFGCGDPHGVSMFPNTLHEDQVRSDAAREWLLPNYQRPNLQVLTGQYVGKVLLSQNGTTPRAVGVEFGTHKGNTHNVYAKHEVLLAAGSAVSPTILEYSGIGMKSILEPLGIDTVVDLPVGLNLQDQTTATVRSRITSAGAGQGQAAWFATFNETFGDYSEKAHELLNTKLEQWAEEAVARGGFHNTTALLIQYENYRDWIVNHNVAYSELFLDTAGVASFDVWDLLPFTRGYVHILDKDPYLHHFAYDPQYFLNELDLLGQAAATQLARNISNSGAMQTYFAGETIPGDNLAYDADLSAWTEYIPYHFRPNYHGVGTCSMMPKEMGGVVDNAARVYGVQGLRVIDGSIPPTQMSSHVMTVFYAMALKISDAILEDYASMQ
Gamma-glutamyl transpeptidase EC 2.3.2.2, sequence (P19440 whole entry): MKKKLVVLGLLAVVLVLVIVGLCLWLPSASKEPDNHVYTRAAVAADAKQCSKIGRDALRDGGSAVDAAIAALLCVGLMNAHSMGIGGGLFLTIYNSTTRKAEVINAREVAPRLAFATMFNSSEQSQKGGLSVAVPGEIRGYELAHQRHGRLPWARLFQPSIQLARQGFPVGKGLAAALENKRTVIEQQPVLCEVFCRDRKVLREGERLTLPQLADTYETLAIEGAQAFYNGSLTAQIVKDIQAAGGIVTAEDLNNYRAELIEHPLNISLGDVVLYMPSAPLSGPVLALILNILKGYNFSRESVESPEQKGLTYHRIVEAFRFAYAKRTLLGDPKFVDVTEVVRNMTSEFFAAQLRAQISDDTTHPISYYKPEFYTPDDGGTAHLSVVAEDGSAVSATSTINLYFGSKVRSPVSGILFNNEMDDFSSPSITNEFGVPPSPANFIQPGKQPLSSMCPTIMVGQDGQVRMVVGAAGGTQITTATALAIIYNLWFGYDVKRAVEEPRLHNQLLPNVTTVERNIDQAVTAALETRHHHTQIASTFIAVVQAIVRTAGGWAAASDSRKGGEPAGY

SMILES: [Ar] [Ar, argon]
% Inhibition Compared to 100% CO2 (Anaerobes; Carrots): 9%
% Inhibition Compared to 100% CO2 (Anaerobes; Fish Fillets): 2%
% Inhibition Compared to 100% CO2 (Anaerobes; Green Beans, Refrigerated): 61%
% Inhibition Compared to 100% CO2 (Anaerobes; Ground Beef): 16%
% Inhibition Compared to 100% Air (Anaerobes; Lettuce): 16%
% Inhibition Compared to 100% CO2 (Anaerobes; Mixed Salad (Chef Salad)): 6% and 1%
% Inhibition Compared to 100% CO2 (Anaerobes; Shrimp): 4%
% Inhibition Compared to 100% CO2 (Anaerobes; Smelt): 30%
% Inhibition Compared to 100% CO2 (Anaerobes; Steaks): 6%
% Inhibition Compared to 100% CO2 (Anaerobes; Tomatoes): 22%
Result (inhibition vs air), maximum inhibition of enzyme activity (Tyrosinase EC 1.14.18.1): −60%
% Inhibition Compared to 100% Air (Yeasts; Carrots): 49%
% Inhibition Compared to 100% Air (Yeasts; Fish Fillets): 35%
% Inhibition Compared to 100% Air (Yeasts; Green Beans, Refrigerated): 20%
% Inhibition Compared to 100% Air (Yeasts; Green Beans, Room Temperature): 10%
% Inhibition Compared to 100% Air (Yeasts; Ground Beef): 28%
% Inhibition Compared to 100% Air (Yeasts; Lettuce): 28%
% Inhibition Compared to 100% Air (Yeasts; Mixed Salad (Chef Salad)): 47%
% Inhibition Compared to 100% Air (Yeasts; Shrimp): 2%
% Inhibition Compared to 100% Air (Yeasts; Smelt): 17%
% Inhibition Compared to 100% Air (Yeasts; Steaks): 16%
% Inhibition Compared to 100% Air (Yeasts; Strawberries): 12%
% Inhibition Compared to 100% Air (Yeasts; Tomatoes): 38%
Result (inhibition), maximum inhibition of enzyme activity [1]: −17%
Result (inhibition), maximum inhibition of enzyme activity [2]: −85.8%
% Inhibition Compared to 100% Air (Aerobes; Carrots): 33%
% Inhibition Compared to 100% Air (Aerobes; Fish Fillets): 13%
% Inhibition Compared to 100% Air (Aerobes; Green Beans, Refrigerated): 11%
% Inhibition Compared to 100% Air (Aerobes; Green Beans, Room Temperature): 2%
% Inhibition Compared to 100% Air (Aerobes; Ground Beef): 0.4%
% Inhibition Compared to 100% Air (Aerobes; Lettuce): 0.4%
% Inhibition Compared to 100% Air (Aerobes; Mixed Salad (Chef Salad)): 12%
% Inhibition Compared to 100% Air (Aerobes; Shrimp): 1%
% Inhibition Compared to 100% Air (Aerobes; Steaks): 13%
% Inhibition Compared to 100% Air (Aerobes; Strawberries): 40%
% Inhibition Compared to 100% Air (Aerobes; Tomatoes): 96%
% Inhibition Compared to 100% Air (Molds; Carrots): 20%
% Inhibition Compared to 100% Air (Molds; Fish Fillets): 15%
% Inhibition Compared to 100% Air (Molds; Green Beans, Refrigerated): 25%
% Inhibition Compared to 100% Air (Molds; Green Beans, Room Temperature): 15%
% Inhibition Compared to 100% Air (Molds; Ground Beef): 4%
% Inhibition Compared to 100% Air (Molds; Lettuce): 4%
% Inhibition Compared to 100% Air (Molds; Mixed Salad (Chef Salad)): 2%
% Inhibition Compared to 100% Air (Molds; Shrimp): 5%
% Inhibition Compared to 100% Air (Molds; Smelt): 22%
% Inhibition Compared to 100% Air (Molds; Steaks): 27%
% Inhibition Compared to 100% Air (Molds; Strawberries): 80%
% Inhibition Compared to 100% Air (Molds; Tomatoes): 51%
Result [3]: −75%
Result, With Lipase (Lipase EC 3.1.1.3): −18%
inhibition (up to) (Lipase EC 3.1.1.3): up to −20%
Result, Class V isomerases [4]: −37%
Result (inhibition), maximum inhibition of enzyme activity [5]: −5%

Result (inhibition vs air), maximum inhibition of enzyme activity (Tyrosinase EC 1.14.18.1): 0%
SMILES: O=C=O [CO2, carbon dioxide, reference compound]
depression of yeasts and molds with respect to nitrogen or air (Yeasts and molds; Bread): may be superior
depression of yeasts and molds with respect to nitrogen or air (Yeasts and molds; Pasta): may be superior
% Inhibition Compared to 100% Air (Yeasts; Carrots): 35%
% Inhibition Compared to 100% Air (Yeasts; Fish Fillets): 36%
% Inhibition Compared to 100% Air (Yeasts; Green Beans, Refrigerated): 55%
% Inhibition Compared to 100% Air (Yeasts; Green Beans, Room Temperature): 19%
% Inhibition Compared to 100% Air (Yeasts; Ground Beef): 4%
% Inhibition Compared to 100% Air (Yeasts; Lettuce): 4%
% Inhibition Compared to 100% Air (Yeasts; Mixed Salad (Chef Salad)): 63%
% Inhibition Compared to 100% Air (Yeasts; Shrimp): 8%
% Inhibition Compared to 100% Air (Yeasts; Smelt): 0.8%
% Inhibition Compared to 100% Air (Yeasts; Steaks): 15%
% Inhibition Compared to 100% Air (Yeasts; Strawberries): 32%
% Inhibition Compared to 100% Air (Yeasts; Tomatoes): 80%
% Inhibition Compared to 100% Air (Aerobes; Carrots): 24%
% Inhibition Compared to 100% Air (Aerobes; Fish Fillets): 14%
% Inhibition Compared to 100% Air (Aerobes; Green Beans, Refrigerated): 26%
% Inhibition Compared to 100% Air (Aerobes; Green Beans, Room Temperature): 10%
% Inhibition Compared to 100% Air (Aerobes; Ground Beef): 9%
% Inhibition Compared to 100% Air (Aerobes; Lettuce): 9%
% Inhibition Compared to 100% Air (Aerobes; Mixed Salad (Chef Salad)): 2%
% Inhibition Compared to 100% Air (Aerobes; Shrimp): 4%
% Inhibition Compared to 100% Air (Aerobes; Steaks): 21%
% Inhibition Compared to 100% Air (Aerobes; Strawberries): 48%
% Inhibition Compared to 100% Air (Aerobes; Tomatoes): 92%
% Inhibition Compared to 100% Air (Molds; Carrots): 3%
% Inhibition Compared to 100% Air (Molds; Fish Fillets): 18%
% Inhibition Compared to 100% Air (Molds; Green Beans, Refrigerated): 2%
% Inhibition Compared to 100% Air (Molds; Green Beans, Room Temperature): 3%
% Inhibition Compared to 100% Air (Molds; Ground Beef): 2%
% Inhibition Compared to 100% Air (Molds; Lettuce): 2%
% Inhibition Compared to 100% Air (Molds; Mixed Salad (Chef Salad)): 4%
% Inhibition Compared to 100% Air (Molds; Shrimp): 2%
% Inhibition Compared to 100% Air (Molds; Smelt): 29%
% Inhibition Compared to 100% Air (Molds; Steaks): 17%
% Inhibition Compared to 100% Air (Molds; Strawberries): 100%
% Inhibition Compared to 100% Air (Molds; Tomatoes): 62%

SMILES: N#N [Gas N2, nitrogen, reference compound]
Result (inhibition vs air), maximum inhibition of enzyme activity (Tyrosinase EC 1.14.18.1): 0%
inhibition of chemical oxidation, order of effect of the gases [6]: has no such ability
